Non-standard residues stand in square brackets, D forms with d. Residues, ends and D or L forms follow the SMILES beside them. N(1-naphthylmethyl)Gly = O=C(O)CNCc1cccc2ccccc12; N(4-MeBn)Gly = Cc1ccc(CNCC(=O)O)cc1; NBuGly = CCCCNCC(=O)O; Nlys = NCCCCNCC(=O)O
Assays:
in vitro [1] = settings: Beagle, dog
Procedure: Plasma stability was determined by incubation of a known concentration of the peptoid/hybrid of interest with dog plasma up to 60 min at 37 °C and analyzing the concentration of the peptide in the supernatant by LC-MS/MS after protein precipitation. Results are presented as average of triplicates from a single donor.
Dog plasma was collected from a single Beagle dog at the research facilities of Zoetis Animal Health (Kalamazoo, MI, USA) and frozen immediately until use. […] Test compounds were added to plasma diluted 1:1 with PBS buffer pH 7.4 and preheated for 5 min at 37 °C. Samples were removed at 0, 5, 10, 20, 30, and 60 min. The reaction was stopped by protein precipitation by adding a 9:1 (v/v) ACN:MeOH mixture followed by centrifugation at 10,000 rpm for 5 min, and the remaining amount of intact test compounds in the supernatant was quantified via API Sciex 4000Q LC-MS/MS (Framingham, MA, USA) (coupled with an HPLC column to filter off the plasma proteins—see Supplementary Materials, Section S6) upon completion of the assay. Experiments were performed in quadruplicate.

pronase [2] = assay: in vitro; settings: pronase from Streptomyces griseus, pH 8
trypsin = target: T1, trypsin (Bos taurus, UniProt P00760); assay: Stability to proteases: trypsin
T1 sequence (P00760 24-246): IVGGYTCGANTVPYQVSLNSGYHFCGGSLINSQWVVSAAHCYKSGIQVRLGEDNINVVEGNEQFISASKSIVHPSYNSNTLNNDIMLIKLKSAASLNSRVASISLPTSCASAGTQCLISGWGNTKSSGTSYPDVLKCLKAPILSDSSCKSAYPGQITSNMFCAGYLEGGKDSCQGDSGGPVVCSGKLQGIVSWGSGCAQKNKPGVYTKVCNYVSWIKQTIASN
Procedure: Solutions, concentrations, and reaction temperatures were selected according to manufacturer’s recommendations for total peptide digestion. A stock solution of 1 mM trypsin was prepared in 1 mM Tris HCl buffer solution containing 20 mM Ca^2+. […] […] Chymotrypsin was solubilized at 10 mg/mL in 1 mM HCl solution containing 2 mM CaCl2. […] Chymotrypsin reaction was conducted in 100 mM Tris HCl containing 10 mM CaCl2, pH 7.8 at 30 °C. […] At time 0, 3, and 6 h, 50 µL aliquots were removed for RP-HPLC analysis (see supplementary Materials, Section S3).

in vitro [3] = settings: liver microsomes
Excerpt: Liver microsomal assay is used to determine hepatic intrinsic clearance of a drug and identification and profile of metabolites across species. Evaluation of microsomal stability of compounds in different species is common procedure in the drug discovery process to evaluate different metabolites in case of instability.
Dog and human microsomes were obtained from XenoTech LLC (Kansas City, KS, USA) and reconstituted in buffer containing D-(L)-isocitrate trisodium salt and 10 U/mL isocitrate dehydrogenase type IV glycerol solution (procine). […] The reaction was initiated by adding NADPH and substrate to reconstituted microsomes. A final concentration of 1 µM substrate was incubated with 0.5 mg/mL microsomes in the presence of 1 mM NADP^+ in 100 mM PBS with 1 mM MgCl2. Samples were collected at 0, 5, 10, 20, 30, and 60 min. The reaction was conducted at 37 °C before termination by addition of ACN, and analysis was conducted by LC-MS/MS (similar to the method described above). Controls with no drug and with no microsome regeneration system (buffer only) were included. All samples were prepared in triplicate. The rate of degradation by metabolism was measured on the basis of the difference of substrate concentration remaining at every time point. Metabolic half-lives were calculated as mentioned above.

α-chymotrypsin = α-chymotrypsin (Bos taurus, UniProt P00766)
Procedure: Solutions, concentrations, and reaction temperatures were selected according to manufacturer’s recommendations for total peptide digestion. A stock solution of 1 mM trypsin was prepared in 1 mM Tris HCl buffer solution containing 20 mM Ca^2+. […] Reaction was conducted at 37 °C for 6 h. Chymotrypsin was solubilized at 10 mg/mL in 1 mM HCl solution containing 2 mM CaCl2. […] Chymotrypsin reaction was conducted in 100 mM Tris HCl containing 10 mM CaCl2, pH 7.8 at 30 °C. […] At time 0, 3, and 6 h, 50 µL aliquots were removed for RP-HPLC analysis (see supplementary Materials, Section S3).

[4] = tested on: Staphylococcus pseudintermedius; format: cell-based; settings: irrespective of the strain being MSSP or MRSP; Mueller-Hinton broth, 35 °C, 16–20 h
Procedure: Assays were performed by microbroth dilution of test compounds in Mueller-Hinton broth (MHB) in microtiter plates (Corning 96-well clear polypropylene round bottom plates, non-treated) according to the Clinical and Laboratory Standard Institute guidelines. The compounds were tested in concentrations ranging from 1 to 64 μg/mL (1, 2, 4, 8, 16, 32, 64 μg/mL). Briefly, bacteria were streaked on blood agar plates and incubated overnight at 37 °C. From these plates, colonies were suspended in saline solution and adjusted by nephelometer to obtain turbidity equivalent to a 0.5 McFarland standard. The suspension was diluted 1:100 in sterile 0.9% (w/v) saline, and 50 μL of this suspension was transferred to each well of the microtiter plate containing 50 μL of peptide solution in water, resulting in a concentration of 5 × 10^5 CFU/well. The microtiter plate was sealed and incubated at 35 °C for 16–20 h. Results were read by visual inspection.

in vitro [5] = format: cell-based; settings: dog
Excerpt: B1 and D2 were designed on the basis that the majority of antimicrobial peptides are cationic and hydrophobic. We envisaged that short linear peptide-peptoid hybrids consisting of cationic lysines and hydrophobic peptoid residues would result in derivatives with potent antibacterial activity and low cytotoxicity. […] Repeated experiments on different days with different human blood samples confirmed the results.

dog plasma proteins [6] = assay: Plasma protein binding, rapid equilibrium dialysis; format: in vitro ADME
Procedure: (§1) The plasma protein binding properties of candidate drugs can influence their efficacy, safety, and distribution. The fraction of peptoid bound to proteins of plasma collected from dogs was determined using rapid equilibrium dialysis.
(§2) Plate inserts comprised two side-by-side chambers separated by a dialysis membrane (8K MWCO). The chambers contained […] plasma or 350 µL dialysis buffer (PBS buffer pH 7.4), respectively. Dogplasma lot was identical to the one used in the plasma stability assay. […] Plates were sealed and incubated at 37 °C for 4 h on a shaker. Each test was run in quadruplicate in dog plasma. Upon completion of the assay, the plasma protein binding was determined by protein precipitation with ACN of both plasma and PBS, and drug levels were quantified via LC-MS/MS as described above. The percentage of bound compounds was determined from peak areas using Equations (3) and (4):% free = (concentration buffer chamber/concentration plasma chamber) × 100%(3) % bound = 100% − % free(4)

[7] = Plasma protein binding, rapid equilibrium dialysis; format: in vitro ADME, dog; settings: Beagle, dog; for recovery at 4 h, 30.8 µM: pH 7.4, % Average Recovery; for fraction unbound at 4 h, 30.8 µM: plasma
Procedure: as §1, §2

human red blood cells = format: cell-based; settings: 37 °C, 1 h
Procedure: EC10 and EC50 values represent concentrations that result in 10 and 50% hemolysis, respectively. […] Briefly, two-fold serial dilutions (1 to 256 μg/mL) were incubated in PBS with a suspension of freshly withdrawn human red blood cells in PBS in 96-well v-shaped microtiter plates at 37 °C for 1 h covered with Microseal foil to avoid evaporation, and transferred to 96-well flat bottomed microtiter plates. The release of hemoglobin was detected by measuring the absorbance at 414 nm by a UV spectrophotometer (VERSAmax™ Tunable Microplate Reader, Molecular Devices, San José, CA, USA). PBS and melittin were used as negative and positive controls, respectively. All human blood samples were obtained after informed consent of the voluntary donors upon understanding of the research purposes, within local hospitals and according to local guidelines.

[8] = Day 0 versus Day 1, UV-UPLC
Procedure: 5-60% ACN in 2 minutes, 0.1% Formic Acid
(Waters Acquity UV-UPLC, C18 column, 2.1x54 mm, T=60°C, equilibration time= 0.1 min)
Table S4 Final gradient elution UV-UPLC method used for the LC-MS/MS experiments. %A and %B indicate the
percentage of the mobile phases mixed at the given time. […]

[9] = UV-UPLC detection limit 1 µg/L
Procedure: The experiment was repeated twice.
The experiment was conducted in duplicate.

pronase [10] = settings: 37 °C, RP-HPLC peak areas
[11] = In vitro drug release from formulations, Franz cell with cellulose membrane; format: physicochemical
Procedure: Release was evaluated as function of the amount of peptide diffused through a cellulose membrane in the receptor of a Franz cell and detected via RP-HPLC from 0 to 8 h.
An oil-in-water cream and an ointment were prepared as described by Danish Health and Medicines Authority. For the oil-in-water cream, ingredients of the oil phase (Table 3) were melted on a water bath at 70 °C and mixed with the water phase, which was previously brought to boil and cooled down to 65–70 °C. The mixture was stirred until cooled. The ointment formulation was prepared by mixing melted Vaseline (80%) with paraffin oil (20%) on a water bath and allowed to cool under stirring. The cold method was used for preparation of the 20% (w/w) poloxamer gel, where the poloxamer powder was dissolved in purified water at 4 °C and subsequently left overnight at 2–8 °C to stabilize. All formulations were stored at 4 °C for maximum seven days before use. […] For the hydrogel, the compounds dissolved in water were mixed with the cold poloxamer solution before gelling at room temperature.
Approximately 200 µL of each formulation was filled into the donor chambers of the Franz cells via a 1 mL syringe ensuring contact with the cellulose membrane separating the donor compartment from the receptor compartment. The donor compartment was maintained at room temperature (25 ± 1 °C) and the membrane diffusion area was 1.57 cm^2. […] The receptor medium (3 mL PBS, pH 7.4) was stirred using magnetic stirring and thermo-regulated to 36 °C by a water jacket. Samples (200 μL) were collected from the receptor compartment through the sampling port over 8 h, and the withdrawn volume was replaced with an equal volume of buffer at every time point. The samples were analyzed by a Waters 600E RP-HPLC equipped with Empower 3 software (Waters Corporation, Milford, MA, USA): 30 min run time with 20 min linear gradient from 0.1% (v/v) TFA in water to 30% (v/v) ACN:H2O with 0.1% (v/v) TFA (90:10). […] Experiments were performed in duplicate.

dog plasma proteins [12] = settings: stated in the method for the control; no reference given; cited from earlier work
[13] = Beagle, dog, 4 h, 30.8 µM, pH 7.4
[14] = pH 7.4, % Unbound (free fraction)
[15] = dog plasma, 4 h incubation, 37 °C

CCCCN(CC(=O)N[C@@H](CCCCN)C(=O)N(CC(=O)N(CC(=O)N(CC(N)=O)Cc1cccc2ccccc12)Cc1ccc(C)cc1)Cc1cccc2ccccc12)C(=O)[C@H](CCCCN)NC(=O)[C@@H](N)CCCCN [Compound B1] (H-KK[NBuGly]K[N(1-naphthylmethyl)Gly][N(4-MeBn)Gly][N(1-naphthylmethyl)Gly]-NH2)
half-life (in vitro [1]; dog plasma diluted 1:1 with PBS, pH 7.4, Half-life in plasma (dog), dog plasma, 37 °C, incubation up to 60 min, LC-MS/MS): ~0.5 h | half-life (in vitro [1]; dog plasma diluted 1:1 with PBS, pH 7.4, stability to plasma proteases (half-life), in hours): 0.5 h | metabolised at 24 h, 0.2 µM (pronase [2]): 38% | metabolised at 24 h, 1 mg/mL (trypsin; isolated enzyme trypsin): 6% | half-life at 1 µM (in vitro [3]; dog): > 2 h | half-life at 1 µM (in vitro [3]; human): > 2 h | remaining at 1 h, 1 µM (in vitro [3]): 100% | degradation after α-chymotrypsin exposure (α-chymotrypsin): no degradation | Minimum inhibitory concentration (MIC) [4]: 2 to 4 µg/mL | hemolysis at 150 µM (in vitro [5]): 45% | % Average Recovery (dog plasma proteins [6]; [13]): 75.6% | recovery at 4 h, 30.8 µM [7]: > 70% | fraction unbound at 4 h, 30.8 µM [7, 14]: 0.0016 | EC50, concentration resulting in 50% hemolysis of erythrocytes (human red blood cells): 219 µg/mL | stability in 50% transcutol in acetate buffer pH 5 [8]: stable | skin penetration from 50% transcutol formulation after 24 h [9]: No penetration

CCCCN(CC(N)=O)C(=O)CN(CCCCN)C(=O)CN(Cc1cccc2ccccc12)C(=O)CN(CCCCN)C(=O)CN(Cc1ccc(C)cc1)C(=O)CN(Cc1cccc2ccccc12)C(=O)CN(CCCCN)C(=O)CNCCCCN [Compound D2] (H-[Nlys][Nlys][N(1-naphthylmethyl)Gly][N(4-MeBn)Gly][Nlys][N(1-naphthylmethyl)Gly][Nlys][NBuGly]-NH2)
half-life (in vitro [1]; plasma, pH 7.4, Half-life in plasma (dog), dog plasma, 37 °C, incubation up to 60 min, LC-MS/MS): > 2 h | metabolised at 24 h, 0.2 µM (pronase [2]): 0.2% | degradation after 24 h incubation with pronase (pronase [10]): shows stability | degradation after 24 h of incubation with trypsin (trypsin): no degradation | half-life (in vitro [3]; dog): > 2 h | half-life (in vitro [3]; human): > 2 h | remaining at 1 h, 1 µM (in vitro [3]): 77% | degradation after α-chymotrypsin exposure (α-chymotrypsin): no degradation | Minimum inhibitory concentration (MIC) [4]: 2 to 4 µg/mL | hemolysis at 150 µM (in vitro [5]): 22% | % Average Recovery (dog plasma proteins [6]; [13]): 70.8% | Bound to plasma proteins (dog plasma proteins [6]; Beagle, dog, plasma, 4 h, 30.8 µM, pH 7.4): 98.6% | recovery at 4 h, 30.8 µM [7]: > 70% | fraction unbound at 4 h, 30.8 µM [7, 14]: 0.0143 | fraction unbound at 4 h, 30.8 µM ([7]; pH 7.4, Bound to plasma proteins): < 0.02 | release from 20% poloxamer gel after eight hours ([11]; 20% poloxamer gel, 8 h): no detectable release | release kinetics from oil-in-water cream ([11]; oil-in-water cream): zero-order kinetics | release from ointment after eight hours ([11]; ointment, 8 h): no detectable release

CS(=O)(=O)CC(=O)N1CC2(C1)OCc1cc(C3=NO[C@@](c4cc(Cl)c(F)c(Cl)c4)(C(F)(F)F)C3)ccc12 [Control, sarolaner, reference compound]
% Unbound (free fraction) (dog plasma proteins [6]; [15]): 0.27% | Bound to plasma proteins (dog plasma proteins [6]; [15]): 99.7% | % Average Recovery (dog plasma proteins [6]; dog plasma, 4 h incubation, n = 4): 67.1% | protein bound (known value of the control compound) (dog plasma proteins [12]): > 99%
